These results are taken from paper PMC7525492, “Microtiter plate-based antibody-competition assay to determine binding affinities and plasma/blood stability of CXCR4 ligands” (Scientific Reports, 2020).

Counter-ions that a name gives are not always drawn. Like-named read-outs stand apart in the source and are kept apart here. Bridge positions count the residues as written; N and C are the ends. Square brackets hold non-standard residues; d marks the D form. Ends that are not written are not given here. Peptide text beside a SMILES is read from it. I, II: the chains in the order shown. 2Nal = N[C@@H](Cc1ccc2ccccc2c1)C(=O)O; Lys(iPr) = CC(C)NCCCC[C@H](N)C(=O)O

The test system of series [1] is SupT1 cells. Briefly: cells. The settings on record: Homo sapiens, SUP-T1, 4 h, read-out: IC50 Migration.
Series [2] relates to CXCR4-tropic HIV-1. Briefly: microbe, parasite or virus in culture. The settings on record: Human immunodeficiency virus 1, TZM-bl, 72 h, read-out: IC50 HIV-1.
Series [3] is described as follows: Functional stability in human plasma read out by 12G5 competition. The series is classed as in vitro ADME. The settings on record: for 12G5-competing activity after incubation in plasma / half-life at 20 µM / ability to block 12G5 binding after incubation in plasma / half-life t1/2 in plasma: 37 °C; for 12G5-competing activity after incubation in plasma: 24 h (AMD3100 also 48 h); for half-life at 20 µM: human, plasma, read-out: half-life t1/2 in plasma; for ability to block 12G5 binding after incubation in plasma: plasma of the individual donor, up to 24 h. How it is done:
The t = 0 sample was immediately taken and stored at − 80 °C. Plasma/compound or blood/compound mixture was then transferred to 37 °C and shook at 350 rpm. At given time points samples were taken and stored at − 80 °C. For measuring the functional activity of the plasma/peptide samples, the mixtures were thawed and serially diluted in ice cold PBS (starting with 100% sample). 12G5-APC antibody competition was then performed as described before. Note, that during the competition process the samples are 1:1 diluted with the antibody and the highest plasma concentration on cells was 50%. For blood/peptide functional stability, samples were thawed and centrifuged at 14,000 rpm for 3 min at 4 °C to remove cells and debris. The supernatant was then serially diluted in PBS (starting with 100% sample) and 12G5-antibody competition assay was performed. […] Afterwards cells were washed again and analyzed for bound antibody.
(§1) Statistical analysis was performed in GraphPad Prism (version 8.3.0). IC50 and IC90 curves and the areas under the curves (AUC) were determined by nonlinear regression.

The next series is described as follows: in vitro. The series is classed as in vitro ADME, human. The settings on record: for half-life at 20 µM: 20 µM in whole EDTA blood of an individual donor, 37 °C, read-out: half-life t1/2 in blood. How it is done: Compounds were 150-fold diluted in human plasma or whole human blood to reach final concentrations of 20 µM. The t = 0 sample was immediately taken and stored at − 80 °C. Plasma/compound or blood/compound mixture was then transferred to 37 °C and shook at 350 rpm. At given time points samples were taken and stored at − 80 °C. For measuring the functional activity of the plasma/peptide samples, the mixtures were thawed and serially diluted in ice cold PBS (starting with 100% sample). 12G5-APC antibody competition was then performed as described before. Note, that during the competition process the samples are 1:1 diluted with the antibody and the highest plasma concentration on cells was 50%. For blood/peptide functional stability, samples were thawed and centrifuged at 14,000 rpm for 3 min at 4 °C to remove cells and debris. The supernatant was then serially diluted in PBS (starting with 100% sample) and 12G5-antibody competition assay was performed. After the 2 h incubation, the cells were washed by centrifugation (1.300 rpm, 4 °C) and 50 µL of 1-step-Fix/Lyse solution (Thermo Fisher #00-5333-54) was added for 15 min at room temperature. Afterwards cells were washed again and analyzed for bound antibody.
Statistical analysis was performed in GraphPad Prism (version 8.3.0). IC50 and IC90 curves and the areas under the curves (AUC) were determined by nonlinear regression. For half-life calculations, the IC50 values for each time point as well as the AUCs were analyzed and normalized relative to t = 0. Activities were then determined ((IC50 (t = 0) / IC50 (t)) × 100) for each time point and half-lives determined by a One-Phase-Decay model.

The conditions of series [4]: administered AMD3100; cited from earlier work.
The test system of series [5] is SupT1 cells. The settings on record: read-out: IC50 Migration.
The test system of series [6] is CXCR4-tropic HIV-1. The settings on record: TZM-bl cells; for IC50: read-out: IC50 HIV-1, infection rate after 3 days, mean ± SEM of 3 assays.
The target in a further series is CXCR4 (Homo sapiens, UniProt P61073). Kind of series: 12G5 antibody competition assay on SupT1 cells. The series is classed as binding. The settings on record: for IC50: APC-labelled 12G5, 2 h at 4 °C, mean ± SEM of 3 assays. How it is done: Compounds were serially diluted in ice cold PBS and 12G5-APC antibody was diluted in cold PBS containing 1% FCS. […] Plates were incubated at 4 °C in the dark for 2 h. Afterwards cells were washed twice by centrifugation with PBS containing 1% FCS and fixed with 2% paraformaldehyde (PFA). During all pipetting steps, plates were kept cool by using a cooling pad. Antibody binding was analyzed by flow cytometry (FACS CytoFLEX; Beckman Coulter) by determination of the mean fluorescence intensity (MFI) of at least 5.000 cells (50.000 cells per well) or 1.000 cells (5.000 cells per well).
Ki calculation3 Ki=IC50/1+L/Kd
For Ki = inhibitory constant; IC50 = half maximal inhibition for 12G5 binding; [L] = 12G5 concentration; Kd = dissociation constant of 12G5.
as §1

Series [7] addresses C-X-C chemokine receptor type 4 (CXCR4) (human (endogenous in SupT1)) (UniProt P61073).
Series [8] has as its target T1, C-X-C chemokine receptor type 4 (CXCR4) (human (endogenous in SupT1), UniProt P61073 1-352). Kind of series: cell-based or functional assay.
The target of series [9] is T1, C-X-C chemokine receptor type 4 (CXCR4). Kind of series: flow cytometry on cells; competition with APC-labelled anti-CXCR4 antibody 12G5 (0.245 nM final) on SupT1 cells (5000 cells per well for Ki, or 50,000); compounds in PBS, antibody in PBS with 1% FCS; 2 h at 4 °C in the dark; Ki calculated from IC50 by the Cheng-Prusoff transformation with the Kd of 12G5 (151.5 pM). The settings on record: one partner purified.

Series [10] deals with T2, C-X-C chemokine receptor type 4 (CXCR4) (human (endogenous in SupT1)), P61073.
T2 chain: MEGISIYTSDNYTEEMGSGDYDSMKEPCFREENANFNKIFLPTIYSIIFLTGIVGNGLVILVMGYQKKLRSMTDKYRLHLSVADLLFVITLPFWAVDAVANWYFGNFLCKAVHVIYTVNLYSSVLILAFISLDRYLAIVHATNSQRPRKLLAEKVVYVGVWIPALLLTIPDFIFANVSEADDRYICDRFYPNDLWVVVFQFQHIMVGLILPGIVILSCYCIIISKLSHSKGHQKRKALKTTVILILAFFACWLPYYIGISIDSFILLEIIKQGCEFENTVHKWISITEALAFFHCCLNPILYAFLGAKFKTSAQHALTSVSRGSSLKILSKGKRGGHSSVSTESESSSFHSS
The description is as above.

Series [11] has as its target T2, C-X-C chemokine receptor type 4 (CXCR4) ….
The mark [12] stands for this setting: 20 µM in plasma of an individual donor.
[13] abbreviates: 20 µM in pooled human plasma, Fig. 4a.

Turning to `NCCCCN(Cc1nc2ccccc2[nH]1)[C@H]1CCCc2cccnc21` [AMD070], the figures for the IC50 in the series on SupT1 cells [1] and in the series on CXCR4-tropic HIV-1 [2] were 152 ± 3 nM and 23 ± 4 nM, respectively.

In the case of `c1cc(CN2CCCNCCNCCCNCC2)ccc1CN1CCCNCCNCCCNCC1` [AMD3100, AMD3100 octahydrochloride hydrate], the IC50 in the series with SupT1 cells [1] was determined as 60 ± 13 nM; in the series with CXCR4-tropic HIV-1 [2], 36 ± 6 nM. The “12G5-competing activity after incubation in plasma” value in series [3] (20 µM in pooled human plasma) is recorded as “remained fully active”. For the same molecule, the half-life at 20 µM in series [3] (setting [12]) is greater than 24 h; in series [3] (setting [13]), greater than 48 h; in series [3] (20 µM in pooled human plasma, Fig. S5a, no unit at the value, time axis in min, estimated by eye) it was greater than 24 h; in the series “in vitro” (human), greater than 24 h. In addition, the “ability to block 12G5 binding after incubation in plasma” value in [3] was “remained fully active”. Further, the “ability to block 12G5 binding after incubation in whole blood” value in “in vitro” is listed as “remained fully active”. Besides, the “fraction bound to plasma proteins” value in series [4] was 58%.

As for `CC[C@H](C)[C@H](N)C(=O)N[C@H](C(=O)N[C@@H](CCCNC(=N)N)C(=O)N[C@@H](Cc1c[nH]c2ccccc12)C(=O)N[C@@H](CO)C(=O)N[C@@H](CCCCN)C(=O)N[C@@H](CCCCN)C(=O)N[C@H](C(=O)N1CCC[C@H]1C(=O)N[C@@H](CSSC[C@H](NC(=O)[C@@H]1CCCN1C(=O)[C@@H](NC(=O)[C@H](CCCCN)NC(=O)[C@H](CCCCN)NC(=O)[C@H](CO)NC(=O)[C@H](Cc1c[nH]c2ccccc12)NC(=O)[C@H](CCCNC(=N)N)NC(=O)[C@@H](NC(=O)[C@@H](N)[C@@H](C)CC)C(C)C)C(C)C)C(=O)N[C@H](C(=O)N[C@@H](CO)C(=O)O)C(C)C)C(=O)N[C@H](C(=O)N[C@@H](CO)C(=O)O)C(C)C)C(C)C)C(C)C` [EPI-X4 WSC02x2] (I: H-IVRWSKKVPCVS-OH / II: H-IVRWSKKVPCVS-OH; disulfide I:10-II:10; N-terminus and C-terminus assumed), the half-life at 20 µM in [3] (setting [12]) is roughly 3 h; in series [3] (20 µM in pooled human plasma (6 donors), from IC50 relative to t = 0, one-phase decay), 3.22 h; in [3] (human plasma, value in discussion) it was greater than 3 h; in “in vitro” (human), 1.33 h. In series [3] (pooled human plasma, ratio of t1/2), the “fold more stable than WSC02 in plasma” value worked out at 19 fold. Further, the “stability in blood compared to plasma” value in the series “in vitro” (human, plasma) is “less stable in blood compared to plasma”.

Take `CC1(C)CN2C(CSC(=NC3CCCCC3)NC3CCCCC3)=CSC2=N1` [IT1t]: the results for the IC50 with SupT1 cells [5] and in the series with CXCR4-tropic HIV-1 [6] were 230 ± 20 nM and 5 ± 0.9 nM, respectively. Further, the “half-life t1/2 in plasma” value in [3] (setting [12]) was “ca. 480 min”; in [3] (setting [13]), less than 24 h. Further, the “12G5-competing activity after incubation in plasma” value in [3] (20 µM in pooled human plasma) was “remained fully active”. In addition, the “ability to block 12G5 binding after incubation in plasma” value in series [3] is on record as “moderately impaired”. In addition, the “ability to block 12G5 binding after incubation in whole blood” value in “in vitro” was “moderately impaired”.

On to `CC(C)NCCCC[C@H](NC(=O)[C@H]1CCC(=O)N[C@@H](Cc2ccccc2)C(=O)N[C@@H](Cc2ccc(O)cc2)C(=O)N[C@@H](CCCCNC(C)C)C(=O)N[C@H](CCCNC(=N)N)C(=O)N[C@@H](Cc2ccc3ccccc3c2)C(=O)NCC(=O)N1)C(N)=O` [LY2510924] (FY[Lys(iPr)][dR][2Nal]G[dE][Lys(iPr)]-NH2; lactam N-7), for which the IC50 in the series with SupT1 cells [5] (100 ng/mL CXCL12, 4 h, mean ± SEM of 3 assays) came to 66 ± 8 nM; in the series with CXCR4-tropic HIV-1 [6], 8 ± 0.8 nM; at CXCR4 (SupT1 cells) it was 151 ± 78 nM. Further, at CXCR4 (calculated from IC50 12G5 by Cheng-Prusoff, Kd of 12G5 151.5 pM), the Ki is 58 ± 30 nM.

For `c1cnc(NCc2ccc(CNc3ncccn3)cc2)nc1` [MSX-122], the IC50 in the series on CXCR4-tropic HIV-1 [2] is greater than 10000 nM. Also, the “effect on CXCR4-tropic HIV-1 infection” value in the series with CXCR4-tropic HIV-1 [6] is reported as “not affecting”. On CXCR4 (SupT1 cells), the “effect on 12G5 binding” value is given as “did not interfere with 12G5 binding” and the IC50 was greater than 100000 nM.

In turn, “EPI-X4 (Endogenous Peptide Inhibitor of CXCR4)” returned an IC50 of inhibition of infection of TZM-bl reporter cells by CXCR4-tropic HIV-1 (NL4-3), β-galactosidase assay in [7] of 31400 nM.

B1: EPI-X4 WSC02x2 (peptide)
chain: IVRWSKKVPCVS
modifications: also: homodimer via intermolecular disulfide, disulfide at 10, other end not in the chain
Consider B1, for which, in series [8], the “IC50 of inhibition of SupT1 cell migration towards CXCL12 (100 ng/mL, transwell); the pair antagonized is CXCL12 with CXCR4” value is 2670 nM and the “IC50 of inhibition of infection of TZM-bl reporter cells by CXCR4-tropic HIV-1 (NL4-3), β-galactosidase assay” value stood at 254 nM. Besides, in series [9], the IC50 is 182 nM and the Ki was 69 ± 12 nM.

B2: EPI-X4 WSC02 (peptide)
chain: IVRWSKKVPCVS
modifications: not checked
Regarding B2, in [10], the IC50 is 290 nM and the Ki was 111 nM. In series [11], this molecule came in with an IC50 of inhibition of SupT1 cell migration towards CXCL12 (100 ng/mL, transwell); the pair antagonized is CXCL12 with CXCR4 of 15800 nM and an IC50 of inhibition of infection of TZM-bl reporter cells by CXCR4-tropic HIV-1 (NL4-3), β-galactosidase assay of 257 nM.

As usually defined, the Ki is a measure of affinity in units of concentration, obtained from inhibition or displacement.
